# Assay results as given in PMC4804318 (Pharmacology Research & Perspectives, 2016).
# Target: T1, human AT1R (Homo sapiens, UniProt P30556)
# T1 sequence (P30556 1-359): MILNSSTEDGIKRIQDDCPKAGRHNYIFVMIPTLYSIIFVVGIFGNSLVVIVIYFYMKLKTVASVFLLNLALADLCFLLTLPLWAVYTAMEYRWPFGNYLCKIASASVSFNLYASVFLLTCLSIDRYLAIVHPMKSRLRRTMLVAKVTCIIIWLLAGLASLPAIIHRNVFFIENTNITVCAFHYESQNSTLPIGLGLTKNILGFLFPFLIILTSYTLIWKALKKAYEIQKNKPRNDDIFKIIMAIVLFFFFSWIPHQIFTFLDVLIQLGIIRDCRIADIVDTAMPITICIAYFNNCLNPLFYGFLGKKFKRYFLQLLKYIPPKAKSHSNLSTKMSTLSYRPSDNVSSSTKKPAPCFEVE
# Type: cell-based
# Conditions: CellKey assay, Fig. 1C
substance,measurement,value
"[Sar^1, Cys^5, Leu^8]‐AngII",potency at β‐arrestin stimulation relative to AngII and SII,less potent than AngII but more potent than SII
